Entries after “also recorded” stand apart in the source; their conditions may differ.
Tests used:
[1] = tested on: F/V cells (angiogenic endothelial cells of foetal bovine aorta); experiment: Proliferation test on F/V cells; type: cell-based; details: for sensitivity of F/V cells compared with F/0 cells to anti-angiogenic agent: F/V versus F/0 cells, seeded at low density (5000), FIG. 4
Procedure: (§1) FIG. 5A relates in particular to the action of the type 3 antibodies on the proliferation of the F/V cells of angiogenic phenotype. FIG. 5B relates to the action of the type 3 antibodies on the proliferation of the F/O non-angiogenic cells. The test carried out is a proliferation test as described in the examples. The cells are cultured in DMEM supplemented with 5% newborn calf serum to which is added either no angiogenic factor (condition 0), or 2 ng/ml VEGF (condition VEGF), or 2 ng/ml FGF-2 (condition FGF-2). The antibody is added at the same time as the angiogenic factors, at variable concentrations (0, 1, 3 or 7 μg/ml).
(§2) The test carried out is a proliferation test as described in the examples. The cells are cultured in DMEM supplemented with 5% newborn calf serum. The antibody is added at the same time as the angiogenic factors, at variable concentrations (0, 50 or 100 μg/ml).
(§3) 12-well plates are seeded at a low density (5000 to 10,000 cells/well), in DMEM medium with 8% serum. After 24 hours, the proliferation of the cells is stimulated by the addition of a range of growth factor, anti-angiogenic medicaments (methoxyestradiol, fumagillin, SU5416 targeted on VEGF-R2—Plouët et al., 2001) or antibodies of the present invention. The cells are restimulated after 48 hours and then after a total of five days in culture the cells are trypsinated and counted with a Coulter counter.
The F/0 and F/V cells are seeded at a low density (5000) as indicated and three drugs are inoculated separately, 2 of which are of unknown mechanism (Methoxyestradiol-ME-2 and fumagillin—FUMA) and 1 interfering with VEGF-R2 (SU 5416) inhibiting kinase activity.

[2] = tested on: F/0 cells (non-angiogenic endothelial cells of foetal bovine aorta); experiment: Proliferation test on F/0 cells; type: cell-based
Procedure: as §1, §2
as §3, with “counter. […]” for “counter.”

Molecule | sensitivity of F/V cells compared with F/0 cells to anti-angiogenic agent [1] | ED 50 of mitogenic action ([1]; F/V cells) [ng/mL] | proliferation under the action of VEGF (in words) [2]
COc1cc2c(cc1O)CC[C@@H]1[C@@H]2CC[C@]2(C)[C@@H](O)CC[C@@H]12 [methoxyestradiol] | identically sensitive; also recorded: equally sensitive |  | 
VEGF |  | 0.3 | do not proliferate
CO[C@@H]1[C@H](OC(=O)/C=C/C=C/C=C/C=C/C(=O)O)CC[C@]2(CO2)[C@H]1[C@@]1(C)O[C@@H]1CC=C(C)C [fumagillin] | identically sensitive; also recorded: equally sensitive |  | 
Cc1cc(C)c(/C=C2\C(=O)Nc3ccccc32)[nH]1 [SU 5416] | much more sensitive |  | 
